Data on five compounds can be found in paper PMC10331595 (Redox Biology, 2023).

In the test the test system is NK-LAAO (native Naja kaouthia L-amino acid oxidase). Type of test: biochemical. The settings on record: 100 mM Tris-HCl pH 8.5, 25 °C.

Where two headings read alike, the source gives them in different places.

`N[C@@H](CCC(=O)O)C(=O)O` [L-Glu]: the Km (0.625-20 mM substrate, 240 min) is 3560 ± 353 µM.
Regarding `N[C@@H](Cc1c[nH]c2ccccc12)C(=O)O` [L-Trp], the Km (0.03125-1 mM substrate, 2 min) came out at 471 ± 25.9 µM.
On to `N=C(N)NCCC[C@H](N)C(=O)O` [L-Arg], for which, for the setting “0.125-4 mM substrate, 2 min”, the Km was 3100 ± 448 µM.
For `CSCC[C@H](N)C(=O)O` [L-Met], the Km (0.03125-4 mM substrate, 2 min) was 587 ± 9.5 µM.
On to `CC(C)C[C@H](N)C(=O)O` [L-Leu], for which the Km (0.0625-4 mM substrate, 4 min) is 637 ± 34.5 µM.
